The supplement of paper PMC11061612

Key:
Assay in all cases: Bliss excess, mean over the matrix (fraction); higher = more synergy
[1] = tested on: BT-474 (Breast Carcinoma)
How it was run: (§1)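 Cell lines grown in DMEM/F12 or RPMI with 10% FBS were plated in 1536-well plates and held 24 hours at 37°C, 5% CO2 before 72 hours of exposure to two-drug dose matrices, with DMSO typically at 0.2%. CellTiter-Glo 2.0 luminescence gave viability, which was converted to inhibition. Vehicle wells were set to 0 and blank wells to 1. Combination Emax is the second-highest inhibition in the matrix, and Bliss excess is the observed combination effect minus the expected EA + EB − EA·EB, where EA and EB are the single-agent effects.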

[2] = tested on: IGROV-1 (Ovarian Carcinoma)
How it was run: as §1

[3] = tested on: OVKATE (Ovarian Carcinoma)
How it was run: as §1

[4] = tested on: KNS-62 (Squamous Cell Lung Carcinoma)
How it was run: as §1

[5] = tested on: SCC90 (Head and Neck Carcinoma)
How it was run: as §1

[6] = tested on: SBC-3 (Small Cell Lung Carcinoma)
How it was run: as §1

[7] = tested on: NCI-H1944 (Lung Adenocarcinoma)
How it was run: as §1

[8] = tested on: JURL-MK1 (Chronic Myelogenous Leukemia)
How it was run: as §1

HT-144 (Melanoma) = tested on: HT-144 (Melanoma)
How it was run: as §1

[9] = tested on: NCI-H1975 (Lung Adenocarcinoma)
How it was run: as §1

[10] = tested on: HT-1197 (Bladder Carcinoma)
How it was run: as §1

[11] = tested on: TOV-21G (Ovarian Carcinoma)
How it was run: as §1

[12] = tested on: RPMI-8402 (T-Lymphoblastic Leukemia)
How it was run: as §1

SK-MEL-24 (Melanoma) = tested on: SK-MEL-24 (Melanoma)
How it was run: as §1

[13] = tested on: C2BBe1 (Colorectal Carcinoma)
How it was run: as §1

[14] = tested on: SW1463 (Colorectal Carcinoma)
How it was run: as §1

[15] = tested on: BC-1 (B-Cell Non-Hodgkin's Lymphoma)
How it was run: as §1

[16] = tested on: RS4-11 (B-Lymphoblastic Leukemia)
How it was run: as §1

[17] = tested on: HT-3 (Cervical Carcinoma)
How it was run: as §1

A375 (Melanoma) = tested on: A375 (Melanoma)
How it was run: as §1

| SMILES | Bliss excess [1] | Bliss excess [2] | Bliss excess [3] | Bliss excess [4] | Bliss excess [5] | Bliss excess [6] | Bliss excess [7] | Bliss excess [8] | Bliss excess (HT-144 (Melanoma)) | Bliss excess [9] | Bliss excess [10] | Bliss excess [11] | Bliss excess [12] | Bliss excess (SK-MEL-24 (Melanoma)) | Bliss excess [13] | Bliss excess [14] | Bliss excess [15] | Bliss excess [16] | Bliss excess [17] | Bliss excess (A375 (Melanoma)) |
| --- | --- | --- | --- | --- | --- | --- | --- | --- | --- | --- | --- | --- | --- | --- | --- | --- | --- | --- | --- | --- |
| C=CCn1c(=O)c2cnc(Nc3ccc(N4CCN(C)CC4)cc3)nc2n1-c1cccc(C(C)(C)O)n1 [AZD1775] + C1CN(CCC1(C(=O)N[C@@H](CCO)C2=CC=C(C=C2)Cl)N)C3=NC=NC4=C3C=CN4 [Capivasertib] (first compound max 3 µM, partner max 3 µM) | 0.0145 | -0.0435 | -0.0239 | -0.0128 | -0.0309 | -0.0786 | 0.0207 | 0.0007 | 0.0014 | -0.0668 | -0.0488 | -0.0043 | 0.0084 | 0.0047 | -0.077 | -0.0888 | 0.0279 | 0.0201 | -0.0073 |  |
| COc1cc2c(cc1OCCCCCOc1cc3c(cc1OC)C(=O)N1C=C(C)C[C@H]1C=N3)N=C[C@@H]1CC(C)=CN1C2=O [SG3199] + O=C(c1cc(Cc2n[nH]c(=O)c3ccccc23)ccc1F)N1CCN(C(=O)C2CC2)CC1 [Olaparib] (first compound max 0.001 µM, 7x7, partner max 10 µM) | -0.0487 | -0.0101 | -0.0653 | -0.0464 | -0.0461 | -0.0516 | -0.0259 | -0.0007 | -0.0443 | -0.0171 | -0.028 | -0.0322 | -0.0259 | -0.0576 | -0.0188 | -0.0393 | -0.0102 | 0.0338 | -0.0306 | -0.0304 |
| CN(CCO)CC[C@H](CSc1ccccc1)Nc1ccc(S(=O)(=O)NC(=O)c2ccc(N3CCC([C@@H](O)c4ccccc4-c4ccc(Cl)cc4)CC3)cc2)cc1S(=O)(=O)C(F)(F)F [AZD4320] + C[C@@H](Nc1cc(F)cc(F)c1)c1cc(C(=O)N(C)C)cc2c(=O)cc(N3CCOCC3)oc12 [AZD8186] (first compound max 1 µM, 7x7, partner max 3 µM) | 0.0516 | 0.042 | -0.0277 | 0.0068 | 0.0276 | -0.0093 | -0.0426 | 0.0149 | 0.0944 | 0.0261 | 0.0598 | -0.0083 | 0.0715 | -0.0354 | 0.0231 | -0.0706 | 0.0677 | 0.0239 | 0.0383 | 0 |
| Cc1cc2ncnn2cc1Nc1ncc2c(n1)n(C1CCOCC1)c(=O)n2C [AZD7648] + O=C(c1cc(Cc2n[nH]c(=O)c3ccccc23)ccc1F)N1CCN(C(=O)C2CC2)CC1 [Olaparib] (first compound max 10 µM, 7x7, partner max 10 µM) | -0.0457 | -0.0782 | -0.0688 | -0.0507 | -0.0364 | -0.0148 | -0.033 | -0.0253 | -0.0519 | 0.0135 | 0.0045 | -0.0363 | -0.0158 | -0.0533 | -0.0402 | -0.0417 | 0.0015 | -0.0831 | -0.0518 | -0.0339 |
| CN(CCO)CC[C@H](CSc1ccccc1)Nc1ccc(S(=O)(=O)NC(=O)c2ccc(N3CCC([C@@H](O)c4ccccc4-c4ccc(Cl)cc4)CC3)cc2)cc1S(=O)(=O)C(F)(F)F [AZD4320] + Cc1cc2ncnn2cc1Nc1ncc2c(n1)n(C1CCOCC1)c(=O)n2C [AZD7648] (first compound max 1 µM, 7x7, partner max 10 µM) | -0.0628 | 0.0266 | -0.0269 | -0.0628 | 0.0682 | -0.0767 | 0.0102 | -0.0287 | -0.0122 | -0.0283 | -0.0497 | -0.0221 | 0.0194 | -0.0429 | -0.0403 | -0.0232 | 0.0246 | -0.0148 | -0.0403 | -0.0312 |
| Cc1cc2ncnn2cc1Nc1ncc2c(n1)n(C1CCOCC1)c(=O)n2C [AZD7648] + CN(C)CCCOc1ccc(-c2ccc3ncc4c(c3c2)n(C2CCOCC2)c(=O)n4C)cn1 [AZD0156] (first compound max 10 µM, 7x7, partner max 1 µM) | 0.0241 | -0.0328 | -0.0132 | -0.0064 | 0.0055 | 0.0332 | -0.0039 | -0.0184 | 0.0013 | -0.0071 | -0.0117 | -0.0047 | 0.0104 | -0.0325 | -0.0408 | 0.0037 | 0.0465 | 0.0397 | 0.0226 | 0.0165 |
| CN(CCO)CC[C@H](CSc1ccccc1)Nc1ccc(S(=O)(=O)NC(=O)c2ccc(N3CCC([C@@H](O)c4ccccc4-c4ccc(Cl)cc4)CC3)cc2)cc1S(=O)(=O)C(F)(F)F [AZD4320] + C[C@@H]1COCCN1C2=NC(=NC(=C2)C3(CC3)[S@](=N)(=O)C)C4=C5C=CNC5=NC=C4 [AZD6738] (first compound max 1 µM, 7x7, partner max 10 µM) | -0.0901 | -0.0353 | -0.0581 | -0.0338 | 0.019 | -0.0184 | -0.0227 | -0.0278 | -0.0385 | -0.0134 | -0.0672 | -0.0224 | 0.031 | -0.0584 | -0.14 | -0.0236 | -0.0014 | 0.026 | -0.0285 | -0.0221 |
| C[C@@H](c1ccc2nccn2c1)n1nnc2ncc(-c3cnn(C)c3)nc21 [Savolitinib] + Cc1c2c(nn1C)CSCc1cc(n(C)n1)CSc1cc(c3ccccc3c1)OCCCc1c(C(=O)O)n(C)c3c-2c(Cl)ccc13 [AZD5991] (first compound max 1 µM, 7x7, partner max 1 µM) | -0.0595 | -0.0303 | -0.0434 | -0.0471 | -0.0222 | -0.0321 | -0.0112 | -0.0037 | -0.054 | -0.0275 | -0.0356 | -0.0111 | -0.132 | -0.0519 | -0.0455 | -0.0109 | -0.0076 | -0.0406 | -0.0255 | -0.0271 |
| Cc1cc2ncnn2cc1Nc1ncc2c(n1)n(C1CCOCC1)c(=O)n2C [AZD7648] + CCN(CCO)CCCOc1ccc2c(Nc3cc(CC(=O)Nc4cccc(F)c4)[nH]n3)ncnc2c1 [AZD2811] (first compound max 10 µM, 7x7, partner max 1 µM) | -0.0214 | -0.115 | -0.0834 | 0.0489 | 0.0511 | 0.0455 | 0.0709 | -0.0046 | 0.0088 | 0.008 | -0.0131 | 0.0183 | -0.0443 | -0.0121 | 0.0124 | -0.0035 | 0.035 | -0.0355 | 0.0276 | 0.0251 |
| CN(CCO)CC[C@H](CSc1ccccc1)Nc1ccc(S(=O)(=O)NC(=O)c2ccc(N3CCC([C@@H](O)c4ccccc4-c4ccc(Cl)cc4)CC3)cc2)cc1S(=O)(=O)C(F)(F)F [AZD4320] + CCN(CCO)CCCOc1ccc2c(Nc3cc(CC(=O)Nc4cccc(F)c4)[nH]n3)ncnc2c1 [AZD2811] (first compound max 1 µM, 7x7, partner max 1 µM) | 0.0081 | 0.0206 | -0.0204 | -0.0204 | 0.134 | 0.0224 | 0.0026 | 0.0346 | 0.0304 | -0.0226 | -0.016 | -0.0177 | 0.0501 | -0.0647 | -0.0326 | -0.0238 | 0.091 | -0.0011 |  | 0.0107 |
| COc1cc2ncnc(Nc3ccc(F)c(Cl)c3)c2cc1OCCCN1CCOCC1 [Gefitinib] + CC(C)n1c(=O)n(C)c2cnc3cc(F)c(-c4ccc(OCCCN5CCCCC5)nc4)cc3c21 [AZD1390] (first compound max 10 µM, 7x7, partner max 0.3 µM) | -0.0866 | -0.0824 | -0.0386 | -0.0783 | -0.0582 | -0.0501 | -0.0668 | -0.0586 | -0.0682 | -0.0676 | -0.0549 | -0.084 | -0.0801 | -0.0831 | -0.029 | 0.0109 | -0.0279 | -0.0484 | -0.0456 | -0.0544 |
| Cc1cc2ncnn2cc1Nc1ncc2c(n1)n(C1CCOCC1)c(=O)n2C [AZD7648] + C[C@@H]1COCCN1C2=NC(=NC(=C2)C3(CC3)[S@](=N)(=O)C)C4=C5C=CNC5=NC=C4 [AZD6738] (first compound max 10 µM, 7x7, partner max 10 µM) | 0.0245 | -0.08 | 0.0232 | 0.0778 | 0.0385 | 0 | 0.0055 | -0.0039 | 0.0349 | 0.015 | -0.0226 | 0.002 | 0.0216 | 0.0523 | 0.0209 | 0.0087 | -0.016 | -0.058 | 0.0076 | 0.0301 |
| Cc1nc(Nc2ncc(C(=O)Nc3c(C)cccc3Cl)s2)cc(N2CCN(CCO)CC2)n1 [Dasatinib] + CC(=O)Nc1cccc(-n2c(=O)n(C3CC3)c(=O)c3c(Nc4ccc(I)cc4F)n(C)c(=O)c(C)c32)c1 [Trametinib] (first compound max 2 µM, 7x7, partner max 1 µM) | -0.0493 | -0.0554 | -0.0147 | -0.0815 | -0.165 | 0.0453 | 0.0343 | -0.0029 | -0.0825 | 0.0302 | -0.0524 | 0.0199 | 0.0053 | 0.141 | 0.0323 | -0.0659 | 0.0858 | -0.0685 | -0.0594 | 0.0736 |
| C[C@@H](c1ccc2nccn2c1)n1nnc2ncc(-c3cnn(C)c3)nc21 [Savolitinib] + CN(CC[C@H](CSC1=CC=CC=C1)NC2=C(C=C(C=C2)S(=O)(=O)NC(=O)C3=CC=C(C=C3)N4CCC(CC4)[C@H](C5=CC=CC=C5C6=CC=C(C=C6)Cl)O)S(=O)(=O)C(F)(F)F)CCO [AZD4320] (first compound max 1 µM, 7x7, partner max 1 µM) | -0.0534 | -0.0735 |  |  | 0.0447 |  | -0.0288 | -0.0811 | -0.0287 | -0.0555 | -0.0354 | -0.0216 |  |  | -0.0348 |  |  | -0.0131 | -0.0238 | -0.0463 |
